Measured values: US8889679B2, “Glutaraldehyde based biocidal compositions and methods of use” (Dow Global Technologies LLC, priority 2009, dated 2014)

Columns and labels:
[1] = tested on: oil field isolated anaerobic SRB consortium; test: Biocidal efficacy against anaerobic bacteria: minimum biocide concentration for complete bacteria kill (MBC), 40° C., 24 hour; format: cell-based, anaerobic sulfate-reducing bacteria (SRB); conditions: for MBC (active ppm) Glutaraldehyde: glutaraldehyde concentration alone or in combination
Description: (§1) The synergy indexes reported in the following examples are calculated using the following equation: Synergy Index=Ca/CA+Cb/CB
(§2) where Ca: Concentration of biocide A required to achieve a certain level or complete bacterial kill when used in combination;
(§3) CA: Concentration of biocide A required to achieve a certain level or complete bacterial kill when used alone;
(§4) Cb: Concentration of biocide B required to achieve a certain level or complete bacterial kill when used in combination; and
(§5) CB: Concentration of biocide B required to achieve a certain level or complete bacterial kill when used alone.
(§6) A synergy index (SI) of 1 indicates additivity, a synergy index of less than 1 indicates synergy, and a synergy index greater than 1 indicates antagonism.
(§7) Various methods known to those skilled in the art can be used for evaluating biocidal efficacy. In the examples below, aliquots of the biocide-treated samples are removed at predetermined time points and the biocide concentration required to achieve a certain level or complete bacterial kill is determined by culture-based methods including serial dilution. In some examples, the method is based or adapted (e.g., for high temperature testing or for the presence of sulfide) from the methodology described in international patent publication WO 2009/039004, which is incorporated herein by reference.
Inside an anaerobic chamber, a deaerated sterile salt solution (3.1183 g of NaCl, 1.3082 mg of NaHCO3, 47.70 mg of KCl, 72.00 mg of CaCl2, 54.49 mg of MgSO4, 172.28 mg of Na2SO4, 43.92 mg of Na2CO3 in 1 L water) is contaminated with an oil field isolated anaerobic SRB consortium at final bacterial concentrations of 10^5-10^6 CFU/mL. Aliquots of this contaminated water are then treated with biocide solution (single or in combination) at various concentrations.

[2] = tested on: oil field isolated anaerobic SRB consortium; test: Biocidal efficacy against anaerobic bacteria for high temperature and sulfide-rich conditions: lowest concentration for 99.9% bacterial reduction in 2 hours; format: cell-based, anaerobic sulfate-reducing bacteria (SRB); conditions: 80° C., 10 ppm sulfide ion; for Dosage required for 99.9% bacterial kill in 2 h (active ppm) Glutaraldehyde: glutaraldehyde concentration alone or in combination
Description: as §1, §2, §3, §4, §5, §6, §7
Inside an anaerobic chamber, biocide solutions (single or in combination) are prepared at various concentrations in a salt solution (3.1183 g of NaCl, 1.3082 mg of NaHCO3, 47.70 mg of KCl, 72.00 mg of CaCl2, 54.49 mg of MgSO4, 172.28 mg of Na2SO4, 43.92 mg of Na2CO3 in 1 L water). The biocide solutions are challenged with 10^4 to 10^5 CFU/mL of an oil field isolated anaerobic SRB consortium and 10 ppm sulfide ion. The mixtures are incubated at 80° C. under anaerobic conditions for 2 hours after which the biocidal efficacy against the field SRB consortium is evaluated. The biocidal efficacy is determined by selecting the lowest biocide concentration required to achieve at least a 99.9% bacterial reduction in 2 hours. Synergy index is then calculated.

[3] = glutaraldehyde/CTAC series, CTAC concentration alone or in combination
[4] = glutaraldehyde/HHT series, HHT concentration alone or in combination
[5] = glutaraldehyde/tris nitro series
[6] = glutaraldehyde/tris nitro series, tris nitro concentration alone or in combination

ClC=CC[N+]12CN3CN(CN(C3)C1)C2 [CTAC, 1-(3-chloroallyl)-3,5,7-triaza-1-azoniaadamantane]
MBC (active ppm) CTAC [1, 3]: 133.3 active ppm
Dosage required for 99.9% bacterial kill in 2 h (active ppm) CTAC [2, 3]: 375.0 active ppm

OCCN1CN(CCO)CN(CCO)C1 [HHT, hexahydro-1,3,5-tris(2-hydroxyethyl)-s-triazine]
MBC (active ppm) HHT [1, 4]: 133.3 active ppm
Dosage required for 99.9% bacterial kill in 2 h (active ppm) HHT [2, 4]: 125.0 active ppm

O=CCCCC=O [glutaraldehyde]
MBC (active ppm) Glutaraldehyde ([1]; glutaraldehyde/CTAC series): 5.3 active ppm
MBC (active ppm) Glutaraldehyde ([1]; glutaraldehyde/HHT series): 4.0 active ppm
MBC (active ppm) Glutaraldehyde [1, 5]: 4.0 active ppm
Dosage required for 99.9% bacterial kill in 2 h (active ppm) Glutaraldehyde ([2]; glutaraldehyde/CTAC series): 8.7 active ppm
Dosage required for 99.9% bacterial kill in 2 h (active ppm) Glutaraldehyde ([2]; glutaraldehyde/HHT series): 15.6 active ppm
Dosage required for 99.9% bacterial kill in 2 h (active ppm) Glutaraldehyde [2, 5]: 22.5 active ppm

O=[N+]([O-])C(CO)(CO)CO [tris nitro, tris(hydroxymethyl)nitromethane]
MBC (active ppm) Tris Nitro [1, 6]: 44.4 active ppm
Dosage required for 99.9% bacterial kill in 2 h (active ppm) Tris Nitro [2, 6]: 180.0 active ppm
